{"source": "patent US6608045B2", "about": "(priority 1998, dated 2003)", "key": {"[1]": {"system": "tyrosine phosphorylation of intracellular proteins involved in TcR-mediated signal transduction", "test": "Immunoblot of tyrosine phosphorylation in CD8-ζ transfected Jurkat T cells stimulated by OKT-8", "assay_type": "cell-based, human", "conditions": "1 μg/ml, 10 hours, Jurkat T CD8-ζ transfectants, OKT-8 stimulation", "procedure": "The suppressive activity of tautomycetin against the signal transduction around the membrane was investigated by determining the suppressive activity against the tyrosine phosphorylation of intracellular protein: To analyse the pathway of signal transduction mediated by TcR, Jurkat T cells which were transfected with a recombinant gene fragment, CD8-ζ chimeric DNA, harboring the ecto+transmembrane domain of CD8 and endomembrane domain of CD3-ζ chain, were cultured in RPMI medium containing 10% fetal bovine serum, 2 mM L-glutamine and 100 unit of penicillin. 1 μg/ml of tautomycetin was treated to 1×10^6 of Jurkat T cell transfectants and incubated for 10 hours, then centrifugation was carried out to harvest cells. The cells were washed twice with PBS and then stimulated by 10 μg/ml of OKT-8 and 10 μg/ml of the rabbit anti-mouse IgG antibody. The tyrosine phosphorylation was detected by immunoblot where the protein was isolated by 12.5% SDS-polyacrylamide gel electrophoresis and transferred to Immunobilon-P membrane(Millipore, U.S.A.). The phosphorylated tyrosine residue of intracellular protein or ZAP-70 protein was detected by the treatment of monoclonal antibody 4G10(Upstate Biotech Inc., U.S.A) or monoclonal antibody against ZAP-70(Zymed, U.S.A.), respectively. […]"}, "Aspergillus niger": {"system": "Aspergillus niger", "test": "Antimicrobial activity by agar diffusion method (paper disc)", "assay_type": "cell-based", "procedure": "The antimicrobial activity of tautomycetin prepared in Example 3 was measured by agar diffusion method. 1×10^8/ml of spore suspension of Aspergillus niger was mixed with glucose-yeast extract agar medium and a paper disc containing tautomycetin was put on the agar plate."}, "[2]": {"system": "tyrosine phosphorylation of intracellular proteins (BcR signal transduction)", "test": "Immunoblot of tyrosine phosphorylation in CD8-Igα/CD8-Igβ transfected BJAB cell (human B-cell)", "assay_type": "cell-based", "conditions": "BJAB transfectants, stimulation by monoclonal antibody against BcR"}, "[3]": {"system": "interleukin-2 receptor(IL-2R)", "test": "Activation-induced interleukin-2 receptor expression on Jurkat T cell surface, flow cytometry", "assay_type": "cell-based, human", "conditions": "1 μg/ml, OKT-3 + PMA", "procedure": "To investigate the suppressive activity against interleukin-2 receptor(IL-2R) expression on the cell surface, 1×10^6 of Jurkat T cell treated with 1 μg/ml of tautomycetin was activated by OKT-3 monoclonal antibody and PMA, and color-developed by the aid of monoclonal antibody against IL-2R(anti IL-2R mAb), then analysed by flow cytometry."}, "IL-2 expression [4]": {"system": "IL-2 expression", "test": "IL-2 expression reporter (NF-AT/IL-2 promoter β-galactosidase) in transfected Jurkat T cells stimulated by OKT-3 (TcR-mediated) and PMA", "assay_type": "cell-based, human", "procedure": "Monoclonal antibody OKT-3, which binds specifically to ε-chain of T-cell receptor(TcR)-CD3 complex, induces IL-2 expression and specific T-cell proliferation by activating TcR-mediated signal transduction. In this regard, the suppressive activity of tautomycetin against the expression of IL-2 stimulated via TcR was investigated: First, 10 μg of goat anti-mouse IgG was immobilized on 96-well microplate in an ELISA coating buffer(pH 9.0) and 10 μg of monoclonal antibody OKT-3 was also immobilzed thereon. To monitor the IL-2 expression level indirectly, transfected Jurkat T cells where the expression of β-galactosidase is driven by the multiple NF-AT(nuclear transcriptional activator) binding sites upstream of minimal IL-2 promoter, were employed and the cells were resuspended in RPMI medium containing 10% fetal bovine serum, 2 mM L-glutamine and 100 unit of penicillin. 1×10^5 of transfected Jurkat T cells were aliquoted to 96-well microplate, and incubated for 24 hours in a medium containing 64 nM PMA while changing the concentration of tautomycetin. Then, centrifugation was carried out to harvest cells, and washed twice with PBS. 150 μl of β-galactosidase detecting solution(containing 0.1% Triton X-100, 200 mM sodium phosphate, 2 mM MgCl2, 100 mM β-mercaptoethanol, 1.33 mg/ml ONPG) was added to each well and after 1 hour, 100 μl of 1M sodium carbonate was added to stop the reaction and measured the suppressive activity of tautomycetin against the IL-2 expression by spectrophotometry at a wavelength of 410 nm."}, "[5]": {"system": "cell surface antigen CD69", "test": "Activation-induced CD69 expression in Jurkat T cells, flow cytometry", "assay_type": "cell-based, human", "conditions": "1 μg/ml, OKT-3 + PMA, 20 hours", "procedure": "1 μg/ml of tautomycetin was added to 1×10^6 of Jurkat T cells, which were stimulated by 10 μg/ml of OKT-3 monoclonal antibody and 50 ng/ml of PMA, and the cells were incubated for 20 hours. Monoclonal antibody against CD69(anti-CD69 mAb) was treated to the cells to carry out color-reaction and analysed by flow cytometry."}, "[6]": {"system": "graft rejection in heart transplantation", "test": "Heart graft experiment (Lewis rat donor, Wistar rat recipient), heartbeat by palpation", "assay_type": "in vivo"}, "[7]": {"system": "T-cell proliferation in mixed lymphocyte reaction (splenocytes of Balb/C and C57BL/6 mouse)", "test": "Mouse mixed lymphocyte reaction (MLR), [3H]-thymidine labelling", "assay_type": "cell-based", "conditions": "72 hours + 24 hours [3H]-thymidine", "procedure": "After the mixed cell culture was incubated at 37° C. for 72 hours, under an environment of 5% CO2, [^3H]-thymidine was added to the plate and further incubated for 24 hours to investigate the suppressive activity against T-cell proliferation by the degree of thymidine labelling."}, "IL-2 expression [8]": {"system": "IL-2 expression", "test": "IL-2 expression reporter (NF-AT/IL-2 promoter β-galactosidase) in transfected Jurkat T cells stimulated by PMA and ionomycin", "assay_type": "cell-based, human", "source_text": "The suppressive activity of tautomycetin against the expression of interleukin-2(IL-2), which plays a crucial role in the immune system, was investigated by treating T-cell proliferating factors such as phorbol-12-myristate-13-acetate(PMA) and ionomycin, which activate protein kinase C to increase the level of diacylglycerol and Ca^2+ in cells: First, to monitor the IL-2 expression level indirectly, transfected Jurkat T cells where the expression of β-galactosidase is driven by the multiple NF-AT(nuclear transcriptional activator) binding sites upstream of minimal IL-2 promoter, were employed and the cells were resuspended in RPMI medium containing 10% fetal bovine serum, 2 mM L-glutamine and 100 unit of penicillin. 1×10^5 of transfected Jurkat T cells were aliquoted to 96-wll microplate, and incubated for 24 hours with the 4 μM ionomycin and 64 nM PMA, while changing the concentration of tautomycetin. Then, centrifugation was carried out to harvest cells, and washed twice with phosphate-buffered saline(PBS). 150 μl of β-galactosidase detecting solution(containing 0.1% Triton X-100, 200 mM sodium phosphate, 2 mM MgCl2, 100 mM β-mercaptoethanol, 1.33 mg/ml ONPG) was added to each well and incubated at 37° C. for 1 hour. 100 μl of 1M sodium carbonate was added to stop the reaction and measured the suppressive activity of tautomycetin against the IL-2 expression by spectrophotometry at a wavelength of 410 nm."}}}
{"substance": "tautomycetin", "values": [{"measurement": "tyrosine phosphorylation of intracellular proteins (TcR-mediated signal transduction), except for ZAP-70", "setting": "[1]", "value": "inhibited"}, {"measurement": "minimum inhibitory concentration(MIC)", "setting": "Aspergillus niger; 48 hours at 28° C., size of growth inhibitory zone", "value": "less than 1 μg/ml"}, {"measurement": "antimicrobial strength relative to cyclosporin A", "setting": "Aspergillus niger; MIC comparison", "value": 10, "unit": "times"}, {"measurement": "tyrosine phosphorylation of intracellular proteins in B-cell", "setting": "[2]", "value": "does not inhibit"}, {"measurement": "activation-induced expression of IL-2R on the cell surface", "setting": "[3]", "value": "suppresses the expression of IL-2R on the cell surface more effectively than cyclosporin A"}, {"measurement": "IC50, suppressive activity against IL-2 expression", "setting": "IL-2 expression [4]; Jurkat T transfectants, immobilized OKT-3 and 64 nM PMA, 24 hours", "value": "6.6e-06", "unit": "ng/mL"}, {"measurement": "suppressive activity against IL-2 expression relative to cyclosporin A", "setting": "IL-2 expression [4]; OKT-3 + PMA", "value": 100, "unit": "times"}, {"measurement": "Suppressive Activity against IL-2 expression", "setting": "IL-2 expression [4]; concentration 10^−7 μg/ml, OKT-3 + PMA", "value": 74.8}, {"measurement": "Suppressive Activity against IL-2 expression", "setting": "IL-2 expression [4]; concentration 10^−8 μg/ml, OKT-3 + PMA", "value": 46.8}, {"measurement": "Suppressive Activity against IL-2 expression", "setting": "IL-2 expression [4]; concentration 10^−9 μg/ml, OKT-3 + PMA", "value": 37.5}, {"measurement": "activation-induced expression of cell surface antigen CD69", "setting": "[5]", "value": "suppresses the expression of cell surface antigen CD69"}, {"measurement": "concentration sustaining the heart movement, as fraction of cyclosporin A", "setting": "[6]; i.p., injection formula of Example 11", "value": "1/50"}, {"measurement": "concentration sustaining the heart movement, as fraction of cyclosporin A", "setting": "[6]; i.v., injection formula of Example 12", "value": "1/500"}, {"measurement": "IC50", "setting": "[7]", "value": 43, "unit": "nM"}, {"measurement": "IC50, suppressive activity against IL-2 expression", "setting": "IL-2 expression [8]; Jurkat T transfectants, 4 μM ionomycin and 64 nM PMA, 24 hours", "value": 3, "unit": "ng/mL"}, {"measurement": "suppressive activity against IL-2 expression relative to cyclosporin A", "setting": "IL-2 expression [8]; PMA + ionomycin", "value": 6, "unit": "times"}, {"measurement": "Suppressive Activity against IL-2 expression", "setting": "IL-2 expression [8]; concentration 0.001 μg/ml, PMA + ionomycin", "value": 12.8}, {"measurement": "Suppressive Activity against IL-2 expression", "setting": "IL-2 expression [8]; concentration 0.01 μg/ml, PMA + ionomycin", "value": 83.9}, {"measurement": "Suppressive Activity against IL-2 expression", "setting": "IL-2 expression [8]; concentration 0.1 μg/ml, PMA + ionomycin", "value": 88}, {"measurement": "Suppressive Activity against IL-2 expression", "setting": "IL-2 expression [8]; concentration 1 μg/ml, PMA + ionomycin", "value": 98}]}
